Source: patent publication US20080241194A1, “COMPOSITIONS AND METHODS FOR PROTECTING ORGANS, TISSUE AND CELLS FROM IMMUNE SYSTEM-MEDIATED DAMAGE” (THE BOARD OF TRUSTEES OF THE LELAND STANFORD JUNIOR …, priority 1998, published 2008)
Ends that are not written are not given here.

Legend:
granzyme A = target: T1, granzyme A (Homo sapiens, UniProt P12544); assay: BLT esterase or SDS-PAGE gelshift assays with granzymes; format: biochemical; details: data not shown
T1 sequence (P12544 29-262): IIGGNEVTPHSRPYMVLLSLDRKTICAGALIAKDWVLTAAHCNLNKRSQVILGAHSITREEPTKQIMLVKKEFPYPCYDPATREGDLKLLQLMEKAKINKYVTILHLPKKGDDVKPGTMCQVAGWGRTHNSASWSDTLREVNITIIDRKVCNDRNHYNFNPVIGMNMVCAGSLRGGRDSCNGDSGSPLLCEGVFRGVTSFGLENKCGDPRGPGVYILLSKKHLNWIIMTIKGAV
From the text: By sequence homology, Hsp47 is a serine protease inhibitor with theoretical specificity for lysine at the active site of incoming serine proteases. Serpins act as “bait” representing cleavable substrates which form a stable instead of a transitory covalent bond with the active center of serine proteases. […] Thus, serpins inactivate serine proteases in a stoichiometric ratio of 1:1. Despite the sequence relationship, no substrate serine protease has so far been identified for Hsp47. Some authors expect the serpin-domain to be nonfunctional because its “active site” amino acids are modified (Hirayoshi et al., Mol Cell Biol 11:4036-4044 (1991)). […] In ^51Cr-release assays, deletion of the serpin domain led to loss of function of the affected truncation mutants. However, as further deletions of the gene re-established full function to the smaller truncated Hsp47 mutants, expressing then little more than the H1,A-A2-consensus region discussed below, we assume that the loss of function of the C-terminal truncation of Hsp47's serpin domain causes a conformational change in the protein which normalizes with further truncation. […]

HUVEC = assay: ^51Cr release CIK cytotoxicity assay, endothelial cell targets pre-treated with BFA, protein or peptide; format: cell-based, human
Protocol: (§1) Target cells were metabolically labelled with ^51Cr (Dupont—New England Nuclear, Boston, Mass.) by incubating 1×10^6 cells in […] ^51Cr at 37° C. for 1-1.5 hours. The labelled cells were washed three times with phosphate buffered saline (PBS) containing 0.1% bovine serum albumin. The labelled cells were distributed in flat-bottomed 96 well microtiter plates at a concentration of 2×10^4 cells/well in triplicate. Effector (CIK) cells were added at the indicated ratios. Mabs were added prior to the addition of effector cells, and incubated for 15-30 minutes at room temperature. The final volume of the assay mixture in each well was 0.2 ml. After 4 hours at 37° C., the cells were collected by centrifugation and an aliquot of the supernatant was counted in a gamma counter (Micromedic Systems, Horsham, Pa.). The percentage of specific ^51Cr release was calculated according to the following equation: […]
Spontaneous release was obtained by incubating the labelled cells in complete medium alone and maximal release by treatment of the cells with 1% NP-40.
For brefeldin A (BFA) treatment, freshly confluent HUVEC monolayers, nonadherent target cells or CIK cells at 0.5-2×10^6 cells per ml were incubated with medium supplemented with 0.5-10 μg of brefeldin A (B6hringer Mannheim GmbH, Mannheim, Germany) per ml medium and incubated for 2-6 hours in a humidified incubator with 5% carbon dioxide at 37° C. BFA was dissolved at 100 μg per ml in 70% ethanol and used fresh or stored up to 4 weeks at −20° C. Prior to cytotoxicity assay the cells were rinsed three times with PBS, and fresh medium not containing BFA was added for the remainder of the assay (FIG. 4).
Both HUVEC and OCI-Ly8 cells were incubated with BFA at concentrations of 0, 2.5, 5, 7.5 and 10 μM for 6 hours as described above, washed, labeled with ^51Cr and used in a cytotoxicity assay with d21 CIK cells at an E:T ratio of 20:1. Preincubation of EC targets with 2.5 μM BFA reduced CIK mediated cytotoxicity by 40%.
Subsequent to ^51Cr labeling but prior to addition of effector cells 10-200 μg FPLC purified Hsp47 (Example 7) protein or 10 nM to 10 μM HPLC purified peptide […] (SEQ ID NO:3) (Example 8), both in sterile PBS at pH 7.4 and diluted to the final concentration with RPMI, were added to targets per ml of medium and incubated for 30 minutes at 37° C. in a humidified atmosphere of 5% CO2. In assays using purified protein, targets were subjected to three subsequent washes with 10 volumes of Ca^2+, Mg^2+ and 5% FCS containing PBS prior to providing fresh standard culture medium to the target cells. In assays using purified peptide, the added peptide was present for the entire assay. The remainder of the assay was performed as detailed above, at 37° C. in a humidified atmosphere of 5% CO2.

Balb/c mice = assay: Murine GvHD model, bone marrow transplant; format: in vivo, mouse; details: for protection from GvHD: 300 μg Hsp47-Gst protein with graft cells, single injection day 0, monitored 4 weeks, 5 animals
Protocol: Male Balb/c mice were twice irradiated with 500 Rads prior to transplantation. Bone marrow (BM) and spleen derived stem cells were obtained from B10D2 (H-2^d background) mice. 2.5×10^6 BM and 1×10^6 spleen cells were pooled as a graft source for each recipient male Balb/c animal. This non-enriched stem cell population of cells were either suspended in RPMI containing 300 μg Hsp47-Gst protein in 300 μl total volume, or, in buffer containing 100 μg of Gst control protein alone. Cells and protein were given in a single injection on day 0. No other immunosuppressive treatments were given. Animals were monitored for 4 weeks after the bone marrow transplant.

OCI-Ly8 tumor cell = assay: ^51Cr release CIK cytotoxicity assay, tumor targets; format: cell-based, human; details: peptide 10 μM, E:T 20:1
Protocol: as §1
Spontaneous release was obtained by incubating the labelled cells in complete medium alone and maximal release by treatment of the cells with 1% NP-40. […]

[1] = Solubility of synthesized peptide; format: physicochemical; details: used in PBS and RPMI 1640
Protocol: A hydrophilic 9 mer peptide of the sequence […] (SEQ ID NO:3) which corresponds to the region of shared homology of Hsp47 with HLA-A2 was synthesized by the Stanford PAN facility on a BioApplied® peptide synthesizer, HPLC purified and verified by amino acid sequencing. Pure peptide was lyophilized and stored at −20° C.

major serine proteases = details: Davids et al. 1995; cited from earlier work

huHsp47-GST protein: fusion protein of human Hsp47 and N-terminally tagged glutathione-S-transferase, expressed in bacteria
irreversible inhibition of granzymes (granzyme A): not able to demonstrate a function of Hsp47 as an irreversible inhibitor | reduction of EC lysis (HUVEC; 1 μM huHsp47-GST protein): 50% | protection of EC by purified recombinant protein (HUVEC; dose response): protects EC in a dose responsive fashion | protection of EC from CIK mediated lysis (HUVEC; pre-incubation with 10 μM huHsp47-GST protein): completely protects | protection from GvHD (Balb/c mice): none developed graft vs. host disease | protection from GvHD (Balb/c mice; listed as Hsp-Gst protein): protected from the onset of GvHD, fur ruffling, weight loss and death | opportunistic infection (Balb/c mice; full body irradiated mice, BMT, over the time period tested): none developed opportunistic infection

AVLSAEQLR
reduction of specific target lysis, CIK-OCI-Ly8 tumor cell ^51Cr cytotoxicity assay (OCI-Ly8 tumor cell): less than 10% | solubility in aqueous solution [1]: soluble in aqueous solution

B1: murine Hsp47: purified murine Hsp47 from cited work (protein, UniProt P19324 18-417, looked up)
Serpin H1: AEVKKPLEAAAPGTAEKLSSKATTLAERSTGLAFSLYQAMAKDQAVENILLSPLVVASSLGLVSLGGKATTASQAKAVLSAEKLRDEEVHTGLGELLRSLSNSTARNVTWKLGSRLYGPSSVSFADDFVRSSKQHYNCEHSKINFRDKRSALQSINEWASQTTDGKLPEVTKDVERTDGALLVNAMFFKPHWDEKFHHKMVDNRGFMVTRSYTVGVTMMHRTGLYNYYDDEKEKLQMVEMPLAHKLSSLIILMPHHVEPLERLEKLLTKEQLKAWMGKMQKKAVAISLPKGVVEVTHDLQKHLAGLGLTEAIDKNKADLSRMSGKKDLYLASVFHATAFEWDTEGNPFDQDIYGREELRSPKLFYADHPFIFLVRDNQSGSLLFIGRLVRPKGDKMRDEL
inhibition of major serine proteases (major serine proteases): failed to inhibit
